Results reported in ChEMBL document CHEMBL5360581, “Discovery of a novel dual functional phenylpyrazole-styryl hybrid that induces apoptotic and autophagic cell death in bladder cancer cells” (Eur J Med Chem, 2023).
Activity calls are given as the source filed them. The rule behind the calls is not given here.

How the values were obtained:
[1] = Selectivity index, ratio of IC50 for cytotoxicity against human NHDF cells to IC50 for cytotoxicity against human A549 cells; type: toxicity, cell-based; details: NHDF cells and A549 cells, read-out: Ratio IC50
EJ-28 [2] = assay: Antiproliferative activity against human EJ-28 cells assessed as reduction in cell viability at 20 uM measured for 72 hrs by MTT assay; type: functional, cell-based
[3] = Selectivity index, ratio of IC50 for cytotoxicity against human NHDF cells to IC50 for cytotoxicity against human EJ-28 cells
EJ-28 [4] = assay: Cytotoxicity against human EJ-28 cells assessed inhibition of cell growth incubated for 72 hrs by MTT assay; type: functional, cell-based; details: EJ-28, 72 h
[5] = Selectivity index, ratio of IC50 for cytotoxicity against human NHDF cells to IC50 for cytotoxicity against human HT-1080 cells
MCF7 [6] = assay: Antiproliferative activity against human MCF7 cells assessed as reduction in cell viability at 20 uM measured for 72 hrs by MTT assay; type: functional, cell-based
HT-1080 [7] = assay: Antiproliferative activity against human HT-1080 cells assessed as reduction in cell viability at 20 uM measured for 72 hrs by MTT assay; type: functional, cell-based
[8] = Selectivity index, ratio of IC50 for cytotoxicity against human NHDF cells to IC50 for cytotoxicity against human MCF7 cells; type: toxicity, cell-based; details: NHDF cells and MCF7 cells, read-out: Ratio IC50
HT-1080 [9] = assay: Cytotoxicity against human HT-1080 cells assessed inhibition of cell growth incubated for 72 hrs by MTT assay; type: functional, cell-based; details: HT-1080, 72 h
[10] = Cytotoxicity against human NHDF cells assessed inhibition of cell growth incubated for 72 hrs by MTT assay; type: toxicity, cell-based
SW-620 [11] = assay: Cytotoxicity against human SW620 cells assessed inhibition of cell growth incubated for 72 hrs by MTT assay; type: functional, cell-based; details: SW-620, 72 h
MCF7 [12] = assay: Cytotoxicity against human MCF7 cells assessed inhibition of cell growth incubated for 72 hrs by MTT assay; type: functional, cell-based; details: MCF7, 72 h
[13] = Selectivity index, ratio of IC50 for cytotoxicity against human NHDF cells to IC50 for cytotoxicity against human SW620 cells
A549 [14] = assay: Antiproliferative activity against human A549 cells assessed as reduction in cell viability at 20 uM measured for 72 hrs by MTT assay; type: functional, cell-based
A549 [15] = assay: Cytotoxicity against human A549 cells assessed inhibition of cell growth incubated for 72 hrs by MTT assay; type: functional, cell-based; details: A549, 72 h
SW-620 [16] = assay: Antiproliferative activity against human SW620 cells assessed as reduction in cell viability at 20 uM measured for 72 hrs by MTT assay; type: functional, cell-based

| SMILES | selectivity ratio [1] | Activity (EJ-28 [2]) | Ratio IC50 [3] | IC50 (EJ-28 [4]) | Ratio IC50 [5] | Activity (MCF7 [6]) | Activity (HT-1080 [7]) | selectivity ratio [8] | IC50 (HT-1080 [9]) | IC50 at 72 h [10] | IC50 (SW-620 [11]) | IC50 (MCF7 [12]) | Ratio IC50 [13] | Activity (A549 [14]) | IC50 (A549 [15]) | Activity (SW-620 [16]) |
| --- | --- | --- | --- | --- | --- | --- | --- | --- | --- | --- | --- | --- | --- | --- | --- | --- |
| Oc1ccccc1-c1cc(/C=C/c2ccccc2Cl)nn1-c1ccccc1 | > 2.2 | Active | >2.2 | 11.7 µM | >2.2 | Active | Active | > 2.2 | 16.9 µM | > 50 µM | 15.7 µM | 15.3 µM | >2.2 | Active | 22.4 µM | Active |
| COc1cc(/C=C/c2cc(-c3cc(Cl)ccc3O)n(-c3ccccc3)n2)cc(OC)c1OC | 3.9 | Active | 3.9 | 10.1 µM | 3.9 | Active | Active | 3.9 | 8.9 µM | 39.6 µM | 4.4 µM | 5.9 µM | 3.9 | Active | 9.4 µM | Active |
| COc1cccc(/C=C/c2cc(-c3ccccc3O)n(-c3ccccc3)n2)c1 | > 2.2 | Active | >2.2 | 14.3 µM | >2.2 | Active | Active | > 2.2 | 20 µM | > 50 µM | 22.1 µM | 16.2 µM | >2.2 | Active | 22.8 µM | Active |
| COc1ccc(/C=C/c2cc(-c3ccccc3O)n(-c3ccccc3)n2)cc1OC | > 2.6 | Active | >2.6 | 18.6 µM | >2.6 | Active | Active | > 2.6 | 15.9 µM | > 50 µM | 18.5 µM | 13 µM | >2.6 | Active | 19.2 µM | Active |
| Cc1ccc(/C=C/c2cc(-c3cc(Cl)ccc3O)n(-c3ccccc3)n2)s1 | 1.7 | Active | 1.7 | 8.6 µM | 1.7 | Active | Active | 1.7 | 21.7 µM | 39.4 µM | 23 µM | 11.1 µM | 1.7 | Active | 22.7 µM | Active |
